Measured values from patent US7655429B2, “Immunoassays for topiramate” (Seradyn, Inc., priority 2004, dated 2010).

System: anti-topiramate antibodies prepared with immunogen (18)
Assay: ELISA binding inhibition study (avidity), free topiramate versus coated antigen
Parameters: species or system Rabbit; Abs: unit not given here
Protocol: ELISA plates for use in an ELISA assay are prepared in order to study the polyclonal antibody prepared as described in Example 21. As such, various topiramate antigens (16), (19), and (20) are coated on different ELISA plates before being subjected to the anti-topiramate antibody and competing free topiramate. More particularly, the topiramate antigens are diluted in coating buffer, and then added to the wells of ELISA plate. After the ELISA plate is incubated for 60 min at 37° C., the solvent in the coating buffer is decanted and a blocking buffer is added to the plate. The plate is incubated again for 60 min at 37° C., and the solvent in the blocking buffer is decanted from the plate. The ELISA plate is then stored with the blocking agent in the wells at 2-8° C. for up to 1 week. The avidity of the anti-topiramate antibodies prepared with immunogen (17) for topiramate analogs are determined by a binding inhibition study. As such, samples are prepared in 1 mL of PBS at pH 7.4 with 0.1% BSA. A composition having 30% Bmax titer or 50% Bmax titer is used to divide the obtained titer value into approximately half the titer value. Using 30% Bmax, an antibody titer of 1:10,000 is diluted to 1:5,000 during the sample preparation stage. About 50 μL of topiramate at different concentrations or calibrator values, (0, 2, 4, 8, 16, 32 μg/ml) are then applied to a plate as prepared in accordance with Example 22. About 50 μL of the diluted antibody is dispensed into the plate, and the compositions in the plate are mixed for 1 min on a horizontal plate shaker. The plate is characterized by a first row not containing topiramate or anti-topiramate antibody, wherein the first row is used as a negative control. A second row not containing topiramate is used as the positive control. The plate is incubated for 60 min, and washed three times with 250 μL of PBS at pH 7.4 with 0.05% tween. About 125 μL of a diluted second antibody conjugate such as antigens (16), (19), or (20), in PBS at pH 7.4 is added to each well of the plate. Titer is determined experimentally by the plate being incubated for 60 min at 37° C. and washed 3 times with 250 μL PBS, pH 7.4 with 0.05% tween. Subsequently, about 125 μL of ABTS substrate is added to each well of the plate and incubated for 20 min. The avidity of the anti-topiramate antibodies prepared with immunogen (18) for topiramate analogs is determined by a binding inhibition study performed with an experimental protocol substantially similar as in Example 24.

[1] = Antigen 16, Topiramate 2 μg/ml, Rabbit No. 5490
[2] = Antigen 16, Topiramate 2 μg/ml, Rabbit No. 5495
[3] = Antigen 16, Topiramate 4 μg/ml, Rabbit No. 5490
[4] = Antigen 16, Topiramate 4 μg/ml, Rabbit No. 5495
[5] = Antigen 16, Topiramate 8 μg/ml, Rabbit No. 5490
[6] = Antigen 16, Topiramate 8 μg/ml, Rabbit No. 5495
[7] = Antigen 16, Topiramate 16 μg/ml, Rabbit No. 5490
[8] = Antigen 16, Topiramate 16 μg/ml, Rabbit No. 5495
[9] = Antigen 16, Topiramate 32 μg/ml, Rabbit No. 5490
[10] = Antigen 16, Topiramate 32 μg/ml, Rabbit No. 5495
[11] = Antigen 19, Topiramate 2 μg/ml, Rabbit No. 5490
[12] = Antigen 19, Topiramate 2 μg/ml, Rabbit No. 5495
[13] = Antigen 19, Topiramate 4 μg/ml, Rabbit No. 5490
[14] = Antigen 19, Topiramate 4 μg/ml, Rabbit No. 5495
[15] = Antigen 19, Topiramate 8 μg/ml, Rabbit No. 5490
[16] = Antigen 19, Topiramate 8 μg/ml, Rabbit No. 5495
[17] = Antigen 19, Topiramate 16 μg/ml, Rabbit No. 5490
[18] = Antigen 19, Topiramate 16 μg/ml, Rabbit No. 5495
[19] = Antigen 19, Topiramate 32 μg/ml, Rabbit No. 5490
[20] = Antigen 19, Topiramate 32 μg/ml, Rabbit No. 5495
[21] = Antigen 20, Topiramate 2 μg/ml, Rabbit No. 5490
[22] = Antigen 20, Topiramate 2 μg/ml, Rabbit No. 5495
[23] = Antigen 20, Topiramate 4 μg/ml, Rabbit No. 5490
[24] = Antigen 20, Topiramate 4 μg/ml, Rabbit No. 5495
[25] = Antigen 20, Topiramate 8 μg/ml, Rabbit No. 5490
[26] = Antigen 20, Topiramate 8 μg/ml, Rabbit No. 5495
[27] = Antigen 20, Topiramate 16 μg/ml, Rabbit No. 5490
[28] = Antigen 20, Topiramate 16 μg/ml, Rabbit No. 5495
[29] = Antigen 20, Topiramate 32 μg/ml, Rabbit No. 5490
[30] = Antigen 20, Topiramate 32 μg/ml, Rabbit No. 5495

CC1(C)O[C@@H]2[C@@H](CO[C@@]3(COS(N)(=O)=O)OC(C)(C)O[C@@H]23)O1 [Topiramate, 2,3:4,5-di-O-isopropylidene-beta-D-fructopyranose sulfamate]
Abs [1]: 0.25
B/Bo [1]: 0.35
Abs [2]: 0.25
B/Bo [2]: 0.35
Abs [3]: 0.20
B/Bo [3]: 0.28
Abs [4]: 0.28
B/Bo [4]: 0.39
Abs [5]: 0.15
B/Bo [5]: 0.21
Abs [6]: 0.15
B/Bo [6]: 0.21
Abs [7]: 0.12
B/Bo [7]: 0.17
Abs [8]: 0.12
B/Bo [8]: 0.17
Abs [9]: 0.10
B/Bo [9]: 0.14
Abs [10]: 0.10
B/Bo [10]: 0.14
Abs [11]: 0.10
B/Bo [11]: 0.18
Abs [12]: 0.13
B/Bo [12]: 0.20
Abs [13]: 0.06
B/Bo [13]: 0.10
Abs [14]: 0.08
B/Bo [14]: 0.12
Abs [15]: 0.04
B/Bo [15]: 0.07
Abs [16]: 0.05
B/Bo [16]: 0.08
Abs [17]: 0.03
B/Bo [17]: 0.06
Abs [18]: 0.04
B/Bo [18]: 0.06
Abs [19]: 0.02
B/Bo [19]: 0.04
Abs [20]: 0.02
B/Bo [20]: 0.03
Abs [21]: 0.25
B/Bo [21]: 0.63
Abs [22]: 0.18
B/Bo [22]: 0.53
Abs [23]: 0.24
B/Bo [23]: 0.60
Abs [24]: 0.17
B/Bo [24]: 0.50
Abs [25]: 0.22
B/Bo [25]: 0.55
Abs [26]: 0.16
B/Bo [26]: 0.47
Abs [27]: 0.21
B/Bo [27]: 0.53
Abs [28]: 0.14
B/Bo [28]: 0.41
Abs [29]: 0.20
B/Bo [29]: 0.50
Abs [30]: 0.11
B/Bo [30]: 0.32
